Laboratory results reported in article PMC3974779, “Pterostilbene-Isothiocyanate Conjugate Suppresses Growth of Prostate Cancer Cells Irrespective of Androgen Receptor Status” (PLoS ONE, 2014).
Residues, ends and D or L forms follow the SMILES beside them. *: point of attachment. Cbz = O=C(OCc1ccccc1)*; CH2F = FC*

How the values were obtained:
GRIP-1 in LNCaP cells = assay: Immunoblot of AR co-activators; format: cell-based, human; details: DHT treatment
Procedure: (§1) The whole-cell lysates were prepared as described previously in immunoprecipitation (IP) buffer containing 50 mM Tris-HCl (pH 8.0), 150 mM NaCl, 5 mM EDTA, and 1% Triton X-100. Protein aliquots of 500 μg were then incubated overnight at 4°C using 2 μg of antibody directed against AR. The Protein A-Cl Agarose beads were then added and further incubated for 6 h at 4°C. The immunoprecipitates were washed four times with the IP buffer and the immunocomplexes were recovered by boiling in SDS sample buffer. Finally the western blot was carried out using anti-AR, anti-SRC-1 and anti-GRIP-1 antibodies (Santa Cruz, CA, USA). For western blot analysis, the cell lysates were prepared after harvesting them in lysis buffer. About 40 μg of total protein was electrophoresed by 12% SDS-PAGE, and the western blotting was carried out using standard protocol. In brief, the analyzed proteins were transferred to nylon membranes. The blots were then blocked with TBST buffer (20 mM Tris-Cl, pH 7.5, 150 mM sodium chloride, 0.05% Tween-20) containing 5% skim milk powder. They were then washed with TBST buffer and incubated overnight at 4°C with the same buffer containing appropriate amounts of primary antibodies: caspase-3, Bax, Bcl-2, Akt, p-Akt, ERK, p-ERK, AR, SRC-1, GRIP-1 (1∶500) and β-actin (1∶1000). The blots were then washed and incubated with anti-rabbit secondary antibody (1∶20,000) conjugated with horseradish peroxidase (HRP). Color development was performed in the dark by using an ECL kit (Amersham, GE Healthcare, Buckinghamshire, UK). The developed blots were subjected to densitometric analysis by ImageJ 1.43 software (NIH, USA) using β-actin as internal control.

SRC-1 in LNCaP cells = assay: Immunoblot of AR co-activators; format: cell-based, human; details: DHT treatment
Procedure: as §1

[1] = test system: p53 protein in LNCaP cells; assay: Immunoblot of p53 with p53 inhibitor; format: cell-based, human; details: 20 μM PFT-α, 20 and 40 μM conjugate, 24 h
Procedure: The whole-cell lysates were prepared as described previously in immunoprecipitation (IP) buffer containing 50 mM Tris-HCl (pH 8.0), 150 mM NaCl, 5 mM EDTA, and 1% Triton X-100. Protein aliquots of 500 μg were then incubated overnight at 4°C using 2 μg of antibody directed against AR. The Protein A-Cl Agarose beads were then added and further incubated for 6 h at 4°C. The immunoprecipitates were washed four times with the IP buffer and the immunocomplexes were recovered by boiling in SDS sample buffer. Finally the western blot was carried out using anti-AR, anti-SRC-1 and anti-GRIP-1 antibodies (Santa Cruz, CA, USA). For western blot analysis, the cell lysates were prepared after harvesting them in lysis buffer. About 40 μg of total protein was electrophoresed by 12% SDS-PAGE, and the western blotting was carried out using standard protocol. In brief, the analyzed proteins were transferred to nylon membranes. […]
Since there was no significant difference in the number of apoptotic cells between conjugate treated LNCaP (wild type p53) and PC-3 (p53 null) cells (p<0.05), it was intriguing to check if p53 has any role in conjugate induced apoptosis of PCa cells. […] Next we determined the effect of p53-inhibition on conjugate induced cell death by using MTT assay.

LNCaP cells [2] = assay: MTT cytotoxicity assay; format: cell-based; details: Homo sapiens, 24 h, 24 h exposure, mean ± SEM, read-out: IC50 value (50% growth inhibition)
Procedure: (§2) MTT assay was carried out as described previously. In brief, 5×10^3 cells in 200 μl of medium were seeded in 96-well plates (Griener, Germany). After 24 h, the cells were treated with various concentrations (0.1, 1, 10, 100 and 1000 μM) of RESV, PTER and conjugate. The control cells were treated with 0.1% DMSO (vehicle control). The cultured cells were assayed after 24 h by adding 20 μl of 5 mg/ml MTT followed by incubating at 37°C for 4 h. The MTT containing media was then aspirated and 200 μl DMSO (Himedia, Mumbai, India) was added to dissolve the formazone crystals. The optical density (OD) was measured at 570 nm using ELISA plate reader (Fluostar optima, BMG Labtech, Germany). The percentage inhibition was calculated as: [drawing 1]
(§3) The dose response curve and IC50 values were obtained by nonlinear regression analysis [non-linear regression (sigmoidal dose response with variable slope)] using Graph Pad Prism, version 5.02 software (Graph Pad Software Inc., CA, USA).

CHO cells = assay: MTT cytotoxicity assay; format: cell-based; details: Cricetulus griseus, CHO noncancer cells, 24 h exposure, read-out: IC50 value (50% growth inhibition)
Procedure: as §2, §3

COS-1 cells = assay: MTT cytotoxicity assay; format: cell-based; details: Chlorocebus aethiops, COS-1 noncancer cells, 24 h exposure, read-out: IC50 value (50% growth inhibition)
Procedure: as §2, §3

PC-3 cells [3] = assay: MTT cytotoxicity assay; format: cell-based; details: Homo sapiens; PC-3, MTT, 24 h exposure, mean ± SEM; read-out: IC50 value (50% growth inhibition)
Procedure: as §2, §3

[4] = test system: caspase-9 activity in LNCaP cells; assay: Caspase colorimetric protease assay; format: cell-based, human; details: 24 h
Procedure: (§4) Caspase activity was determined using ApoTarget caspase colorimetric protease assay sampler kit (KHZ1001; Invitrogen) according to the manufacturer’s instructions. Briefly, both the PCa cells were treated with increasing doses of conjugate and RESV for 24 h. The cells were then collected, washed in PBS, and lysed in 50 μl lysis buffer on ice for 10 min. After centrifugation, the supernatant containing 150 μg proteins were incubated with 200 μM of caspase-3 (Ac-DEVD-pNA), caspase-8 (Ac-IETD-pNA) and caspase-9 (Ac-LEHD-pNA) substrates respectively in reaction buffer at 37°C for 1 h in 96 well flat bottom plate. Levels of released pNA were then measured at 405 nm wavelength with ELISA plate reader (Fluostar optima, BMG Labtech, Germany). The fold-increase in caspase-3, -8, and -9 activities were determined by direct comparison to the level of un-induced control. For the caspase inhibitor assay, cells were pretreated with a synthetic pan-caspase inhibitor (Z-VAD-FMK), caspase-8 inhibitor (Z-IETD-FMK) and caspase-9 inhibitor (Z-LEHD-FMK) for 1 h before the addition of conjugate and the cell death were analyzed by MTT assay as discussed earlier.

[5] = test system: caspase-8 activity in PC-3 cells; assay: Caspase colorimetric protease assay; format: cell-based, human; details: PC-3, 24 h, high dose
Procedure: as §4

[6] = test system: caspase-9 activity in PC-3 cells; assay: Caspase colorimetric protease assay; format: cell-based, human; details: PC-3, 10, 20 and 40 μM, 24 h
Procedure: as §4

[7] = test system: caspase-3 activity in LNCaP cells; assay: Caspase colorimetric protease assay; format: cell-based, human; details: 24 h
Procedure: as §4

[8] = test system: caspase-3 activity in PC-3 cells; assay: Caspase colorimetric protease assay; format: cell-based, human; details: PC-3, 10, 20 and 40 μM, 24 h
Procedure: as §4

[9] = test system: caspase-3 expression in LNCaP cells; assay: Immunoblot analysis of apoptotic markers; format: cell-based, human; details: highest dose (40 μM), immunoblot densitometry
Procedure: as §1

[10] = test system: caspase-3 expression in PC-3 cells; assay: Immunoblot analysis of apoptotic markers; format: cell-based, human; details: PC-3, highest dose (40 μM), immunoblot densitometry
Procedure: as §1

p-ERK in PC-3 cells = assay: Immunoblot of ERK phosphorylation; format: cell-based, human; details: 24 h
Procedure: as §1
(§5) The siRNAs against human Akt and ERK and control siRNA were purchased commercially from Santa Cruz Biotechnology (USA). The LNCaP and PC-3 PCa cells were transfected with siRNAs (at a final concentration of 100 nM) using polyfect transfection reagent (Qiagen, CA, USA) according to manufacturer’s instructions. After 24 h of transfection, the cells were washed properly and replaced with fresh medium. The cells were then treated with 20 μM conjugate for 24 h, and finally protein lysates were prepared on completion of treatment. The levels of p-Akt, p-ERK and cleaved caspase-3 expressions were detected by Western blot analysis.

p-Akt in PC-3 cells = assay: Immunoblot of Akt phosphorylation; format: cell-based, human; details: 24 h
Procedure: as §1, §5

p-Akt in LNCaP cells = assay: Immunoblot of Akt phosphorylation; format: cell-based, human; details: below 20 μM, 24 h
Procedure: as §1, §5

AR in LNCaP cells = assay: Immunofluorescence staining of endogenous AR; format: cell-based, human; details: varying doses of conjugate, 20 μM RESV, DHT
Procedure: The cells were then incubated with AR rabbit polyclonal antibody diluted 1∶200 in blocking buffer for 1 h at RT. Finally, the cells were washed with PBS and incubated with FITC-labelled anti-rabbit secondary antibody diluted 1∶1000 in blocking buffer for 30 min at room temperature. The cells were then observed under a fluorescence microscope (Zeiss, Axiovert 25, Germany).

[11] = test system: AR protein in LNCaP cells; assay: Immunoblot of AR protein; format: cell-based, human
Procedure: as §1

LNCaP cells [12] = assay: Caspase inhibitor assay (conjugate-induced cell death, MTT); format: cell-based, human; details: 20 μM caspase inhibitor 1 h before 20 μM conjugate, MTT after 24 h
Procedure: as §4
(§6) Figure 2 The conjugate induces G2/M phase arrest and caspase dependent cell death in prostate cancer cells. Cell cycle distribution of (A) PC-3 and (B) LNCaP cells upon treatment with varying doses of conjugate. Results are presented as mean ± SEM of three independent experiments. *represents statistically significant difference with respect to vehicle treated PC-3 and LNCaP cells respectively corresponding to each stage of cell cycle at p<0.05. (C) The effects of varying doses of conjugate (left panel) and resveratrol (right panel) on caspase-8, -9 and -3 activities in PC-3 and (D) LNCaP cells. Results are the mean ± SEM of three independent experiments. *represents statistically significant difference with respect to control cells for respective caspases tested at p<0.05. (E) The effect of caspase inhibitors on conjugate-induced cell death in PC-3 and (F) LNCaP cells. The cells were pre-treated with 20 μM of respective caspase inhibitors: Z-LEHDFMK (caspase-9 inhibitor); Z-IETDFMK (caspase-8 inhibitor); and Z-VAD-FMK (general caspase inhibitor) for 1 h before the addition of 20 μM conjugate. Cell death was measured 24 h after conjugate treatment using MTT assay. Data are the mean ± SEM of three independent experiments. *and # represents statistically significant difference with respect to control (vehicle) and conjugate treated cells respectively for each cell lines at p<0.05. ns, non-significant.

PC-3 cells [13] = assay: as above; format: cell-based, human; details: PC-3, 20 μM caspase inhibitor 1 h before 20 μM conjugate, MTT after 24 h
Procedure: as §4, §6

`C[C@]12CCC(=O)C[C@@H]1CC[C@@H]1[C@@H]2CC[C@]2(C)[C@@H](O)CC[C@@H]12` [DHT, dihydrotestosterone, reference compound] was tested, and the “change in expression of GRIP-1” value (GRIP-1 in LNCaP cells) was “no significant change” and the “increase in expression of SRC-1” value (SRC-1 in LNCaP cells) was 1.2 fold.

`Cc1ccc(C(=O)Cn2c3c(sc2=N)CCCC3)cc1` [PFT-α, pifithrin-α, reference compound] was tested, and the “expression of p53 protein” value [1] was “significantly down regulated”.

`COc1cc(/C=C/c2ccc(O)cc2)cc(OC)c1` [Pterostilbene] showed an IC50 (LNCaP cells [2]) of roughly 66.4 µM, an IC50 (CHO cells) greater than 100 µM and an IC50 (COS-1 cells) greater than 100 µM. It also gave an IC50 (PC-3 cells [3]) of 75 ± 2.55 µM.

With `Oc1ccc(/C=C/c2cc(O)cc(O)c2)cc1` [Resveratrol, reference compound] the caspase-9 activity [4] was “significant increase”, the caspase-8 activity [5] was “marginal increase” and the caspase-9 enzyme activity [6] was “dose-dependent augmentation”. For the same compound, the caspase-3 activity [7] was “significant increase”, the caspase-3 enzyme activity [8] was “dose-dependent augmentation” and the IC50 (LNCaP cells [2]) was roughly 82.2 µM. The IC50 (CHO cells) was greater than 100 µM, the IC50 (COS-1 cells) was greater than 100 µM and the IC50 (PC-3 cells [3]) was 95 ± 1.13 µM. The “enhancement of caspase-3 expression” value [9] was 4.5 folds, the “enhancement of caspase-3 expression” value [10] was 3.5 folds and the “reduction in level of p-ERK” value (p-ERK in PC-3 cells; PC-3, 20 μM) was 1.3 folds. The “reduction in level of p-ERK” value (p-ERK in PC-3 cells; PC-3, 40 μM) was 1.8 folds, the “decrease in level of p-Akt” value (p-Akt in PC-3 cells; PC-3, 20 μM) was “about 1.2 folds” and the “decrease in level of p-Akt” value (p-Akt in PC-3 cells; PC-3, 40 μM) was roughly 1.6 folds. The “effect on level of p-Akt” value (p-Akt in LNCaP cells) was “negligible effects”, the AR immunofluorescence intensity (AR in LNCaP cells) was “marginal decrease” and the “inhibition of AR protein levels” value ([11]; 10 and 20 μM, absence of DHT) was “did not show any significant inhibition”. The “inhibition of DHT induced AR protein levels” value ([11]; till 20 μM, 10 nM DHT) was “did not show any significant inhibition”.

In the case of `COC(=O)CC[C@H](NC(=O)[C@H](CC(C)C)NC(=O)OCc1ccccc1)C(=O)N[C@@H](Cc1c[nH]cn1)C(=O)N[C@@H](CC(=O)OC)C(=O)CF` [Z-LEHD-FMK] (Cbz-LE(OMe)HD(OMe)-CH2F), the “inhibition of conjugate induced cell death/apoptosis” value (LNCaP cells [12]) is reported as “almost completely blocked”.

In the case of Cbz-Val-Ala-Asp-CH2F, the “inhibition of conjugate induced cell death/apoptosis” value (LNCaP cells [12]) is reported as “significant inhibition of cell death” and the “inhibition of conjugate induced cell death” value (PC-3 cells [13]) is reported as “significant inhibition of cell death”.

For “Z-IETD-FMK: caspase-8 specific inhibitor”, the “inhibition of conjugate induced cell death/apoptosis” value (LNCaP cells [12]) was “only partially inhibited” and the “inhibition of conjugate induced cell death” value (PC-3 cells [13]) was “completely ineffective”.
